Measurements as given in ChEMBL document CHEMBL5649167, “The SUV4-20 inhibitor A-196 verifies a role for epigenetics in genomic integrity” (Nat Chem Biol, 2017).
Each block holds one compound with its values, some of them ahead of it. Active and inactive are the calls of the source. The calls are words filed in the database; no cut-off is given here.

How the values were obtained:
[1] = target: Insulin receptor (Homo sapiens) (UniProt P06213); experiment: Inhibition of human IRK at 10 uM relative to control
[2] = target: Histone-lysine N-methyltransferase KMT5B (Homo sapiens) (UniProt Q4FZB7); experiment: Binding affinity to recombinant human 6His-(Tev)-G-SUV420H1 (69 to 335 residues) assessed as increase thermal stability by measuring change in melting temperature at 50 uM in the presence of SAM by thermal shift assay
[3] = system: U2OS; experiment: Inhibition of colony formation in human U2OS cells at 1 uM incubated for 48 hrs in the presence of etoposide by cell clonogenic assay; type: functional, cell-based
[4] = target: Histone-lysine N-methyltransferase SETD2 (Homo sapiens) (UniProt Q9BYW2); experiment: Inhibition of SETD2 (unknown origin) using Biotin-tagged H4K20me1 and [3H-SAM] as substrate at 1 to 10 uM incubated for 2 hrs by scintillation proximity assay; settings: dose 1-10 µM
[5] = target: Protein arginine N-methyltransferase 3 (Homo sapiens) (UniProt O60678); experiment: Inhibition of PRMT3 (unknown origin) using Biotin-tagged H4K20me1 and [3H-SAM] as substrate at 1 to 10 uM incubated for 2 hrs by scintillation proximity assay; settings: dose 1-10 µM
[6] = system: U2OS; experiment: Antiproliferative activity against human U2OS cells assessed as inhibition in H4K20me3 expression level 21 doublings by Western blot analysis; type: functional, cell-based
[7] = target: Protein arginine N-methyltransferase 6 (Homo sapiens) (UniProt Q96LA8); experiment: Inhibition of PRMT6 (unknown origin) using Biotin-tagged H4K20me1 and [3H-SAM] as substrate at 1 to 10 uM incubated for 2 hrs by scintillation proximity assay; settings: dose 1-10 µM
[8] = target: Serine/threonine-protein kinase PLK1 (Homo sapiens) (UniProt P53350); experiment: Inhibition of human PLK1 at 10 uM relative to control
[9] = target: Histone-lysine N-methyltransferase 2C (Homo sapiens) (UniProt Q8NEZ4); experiment: Inhibition of MLL3 (unknown origin) using Biotin-tagged H4K20me1 and [3H-SAM] as substrate at 1 to 10 uM incubated for 2 hrs by scintillation proximity assay; settings: dose 1-10 µM
Sequence of Histone-lysine N-methyltransferase 2C (Homo sapiens) (Q8NEZ4 whole entry): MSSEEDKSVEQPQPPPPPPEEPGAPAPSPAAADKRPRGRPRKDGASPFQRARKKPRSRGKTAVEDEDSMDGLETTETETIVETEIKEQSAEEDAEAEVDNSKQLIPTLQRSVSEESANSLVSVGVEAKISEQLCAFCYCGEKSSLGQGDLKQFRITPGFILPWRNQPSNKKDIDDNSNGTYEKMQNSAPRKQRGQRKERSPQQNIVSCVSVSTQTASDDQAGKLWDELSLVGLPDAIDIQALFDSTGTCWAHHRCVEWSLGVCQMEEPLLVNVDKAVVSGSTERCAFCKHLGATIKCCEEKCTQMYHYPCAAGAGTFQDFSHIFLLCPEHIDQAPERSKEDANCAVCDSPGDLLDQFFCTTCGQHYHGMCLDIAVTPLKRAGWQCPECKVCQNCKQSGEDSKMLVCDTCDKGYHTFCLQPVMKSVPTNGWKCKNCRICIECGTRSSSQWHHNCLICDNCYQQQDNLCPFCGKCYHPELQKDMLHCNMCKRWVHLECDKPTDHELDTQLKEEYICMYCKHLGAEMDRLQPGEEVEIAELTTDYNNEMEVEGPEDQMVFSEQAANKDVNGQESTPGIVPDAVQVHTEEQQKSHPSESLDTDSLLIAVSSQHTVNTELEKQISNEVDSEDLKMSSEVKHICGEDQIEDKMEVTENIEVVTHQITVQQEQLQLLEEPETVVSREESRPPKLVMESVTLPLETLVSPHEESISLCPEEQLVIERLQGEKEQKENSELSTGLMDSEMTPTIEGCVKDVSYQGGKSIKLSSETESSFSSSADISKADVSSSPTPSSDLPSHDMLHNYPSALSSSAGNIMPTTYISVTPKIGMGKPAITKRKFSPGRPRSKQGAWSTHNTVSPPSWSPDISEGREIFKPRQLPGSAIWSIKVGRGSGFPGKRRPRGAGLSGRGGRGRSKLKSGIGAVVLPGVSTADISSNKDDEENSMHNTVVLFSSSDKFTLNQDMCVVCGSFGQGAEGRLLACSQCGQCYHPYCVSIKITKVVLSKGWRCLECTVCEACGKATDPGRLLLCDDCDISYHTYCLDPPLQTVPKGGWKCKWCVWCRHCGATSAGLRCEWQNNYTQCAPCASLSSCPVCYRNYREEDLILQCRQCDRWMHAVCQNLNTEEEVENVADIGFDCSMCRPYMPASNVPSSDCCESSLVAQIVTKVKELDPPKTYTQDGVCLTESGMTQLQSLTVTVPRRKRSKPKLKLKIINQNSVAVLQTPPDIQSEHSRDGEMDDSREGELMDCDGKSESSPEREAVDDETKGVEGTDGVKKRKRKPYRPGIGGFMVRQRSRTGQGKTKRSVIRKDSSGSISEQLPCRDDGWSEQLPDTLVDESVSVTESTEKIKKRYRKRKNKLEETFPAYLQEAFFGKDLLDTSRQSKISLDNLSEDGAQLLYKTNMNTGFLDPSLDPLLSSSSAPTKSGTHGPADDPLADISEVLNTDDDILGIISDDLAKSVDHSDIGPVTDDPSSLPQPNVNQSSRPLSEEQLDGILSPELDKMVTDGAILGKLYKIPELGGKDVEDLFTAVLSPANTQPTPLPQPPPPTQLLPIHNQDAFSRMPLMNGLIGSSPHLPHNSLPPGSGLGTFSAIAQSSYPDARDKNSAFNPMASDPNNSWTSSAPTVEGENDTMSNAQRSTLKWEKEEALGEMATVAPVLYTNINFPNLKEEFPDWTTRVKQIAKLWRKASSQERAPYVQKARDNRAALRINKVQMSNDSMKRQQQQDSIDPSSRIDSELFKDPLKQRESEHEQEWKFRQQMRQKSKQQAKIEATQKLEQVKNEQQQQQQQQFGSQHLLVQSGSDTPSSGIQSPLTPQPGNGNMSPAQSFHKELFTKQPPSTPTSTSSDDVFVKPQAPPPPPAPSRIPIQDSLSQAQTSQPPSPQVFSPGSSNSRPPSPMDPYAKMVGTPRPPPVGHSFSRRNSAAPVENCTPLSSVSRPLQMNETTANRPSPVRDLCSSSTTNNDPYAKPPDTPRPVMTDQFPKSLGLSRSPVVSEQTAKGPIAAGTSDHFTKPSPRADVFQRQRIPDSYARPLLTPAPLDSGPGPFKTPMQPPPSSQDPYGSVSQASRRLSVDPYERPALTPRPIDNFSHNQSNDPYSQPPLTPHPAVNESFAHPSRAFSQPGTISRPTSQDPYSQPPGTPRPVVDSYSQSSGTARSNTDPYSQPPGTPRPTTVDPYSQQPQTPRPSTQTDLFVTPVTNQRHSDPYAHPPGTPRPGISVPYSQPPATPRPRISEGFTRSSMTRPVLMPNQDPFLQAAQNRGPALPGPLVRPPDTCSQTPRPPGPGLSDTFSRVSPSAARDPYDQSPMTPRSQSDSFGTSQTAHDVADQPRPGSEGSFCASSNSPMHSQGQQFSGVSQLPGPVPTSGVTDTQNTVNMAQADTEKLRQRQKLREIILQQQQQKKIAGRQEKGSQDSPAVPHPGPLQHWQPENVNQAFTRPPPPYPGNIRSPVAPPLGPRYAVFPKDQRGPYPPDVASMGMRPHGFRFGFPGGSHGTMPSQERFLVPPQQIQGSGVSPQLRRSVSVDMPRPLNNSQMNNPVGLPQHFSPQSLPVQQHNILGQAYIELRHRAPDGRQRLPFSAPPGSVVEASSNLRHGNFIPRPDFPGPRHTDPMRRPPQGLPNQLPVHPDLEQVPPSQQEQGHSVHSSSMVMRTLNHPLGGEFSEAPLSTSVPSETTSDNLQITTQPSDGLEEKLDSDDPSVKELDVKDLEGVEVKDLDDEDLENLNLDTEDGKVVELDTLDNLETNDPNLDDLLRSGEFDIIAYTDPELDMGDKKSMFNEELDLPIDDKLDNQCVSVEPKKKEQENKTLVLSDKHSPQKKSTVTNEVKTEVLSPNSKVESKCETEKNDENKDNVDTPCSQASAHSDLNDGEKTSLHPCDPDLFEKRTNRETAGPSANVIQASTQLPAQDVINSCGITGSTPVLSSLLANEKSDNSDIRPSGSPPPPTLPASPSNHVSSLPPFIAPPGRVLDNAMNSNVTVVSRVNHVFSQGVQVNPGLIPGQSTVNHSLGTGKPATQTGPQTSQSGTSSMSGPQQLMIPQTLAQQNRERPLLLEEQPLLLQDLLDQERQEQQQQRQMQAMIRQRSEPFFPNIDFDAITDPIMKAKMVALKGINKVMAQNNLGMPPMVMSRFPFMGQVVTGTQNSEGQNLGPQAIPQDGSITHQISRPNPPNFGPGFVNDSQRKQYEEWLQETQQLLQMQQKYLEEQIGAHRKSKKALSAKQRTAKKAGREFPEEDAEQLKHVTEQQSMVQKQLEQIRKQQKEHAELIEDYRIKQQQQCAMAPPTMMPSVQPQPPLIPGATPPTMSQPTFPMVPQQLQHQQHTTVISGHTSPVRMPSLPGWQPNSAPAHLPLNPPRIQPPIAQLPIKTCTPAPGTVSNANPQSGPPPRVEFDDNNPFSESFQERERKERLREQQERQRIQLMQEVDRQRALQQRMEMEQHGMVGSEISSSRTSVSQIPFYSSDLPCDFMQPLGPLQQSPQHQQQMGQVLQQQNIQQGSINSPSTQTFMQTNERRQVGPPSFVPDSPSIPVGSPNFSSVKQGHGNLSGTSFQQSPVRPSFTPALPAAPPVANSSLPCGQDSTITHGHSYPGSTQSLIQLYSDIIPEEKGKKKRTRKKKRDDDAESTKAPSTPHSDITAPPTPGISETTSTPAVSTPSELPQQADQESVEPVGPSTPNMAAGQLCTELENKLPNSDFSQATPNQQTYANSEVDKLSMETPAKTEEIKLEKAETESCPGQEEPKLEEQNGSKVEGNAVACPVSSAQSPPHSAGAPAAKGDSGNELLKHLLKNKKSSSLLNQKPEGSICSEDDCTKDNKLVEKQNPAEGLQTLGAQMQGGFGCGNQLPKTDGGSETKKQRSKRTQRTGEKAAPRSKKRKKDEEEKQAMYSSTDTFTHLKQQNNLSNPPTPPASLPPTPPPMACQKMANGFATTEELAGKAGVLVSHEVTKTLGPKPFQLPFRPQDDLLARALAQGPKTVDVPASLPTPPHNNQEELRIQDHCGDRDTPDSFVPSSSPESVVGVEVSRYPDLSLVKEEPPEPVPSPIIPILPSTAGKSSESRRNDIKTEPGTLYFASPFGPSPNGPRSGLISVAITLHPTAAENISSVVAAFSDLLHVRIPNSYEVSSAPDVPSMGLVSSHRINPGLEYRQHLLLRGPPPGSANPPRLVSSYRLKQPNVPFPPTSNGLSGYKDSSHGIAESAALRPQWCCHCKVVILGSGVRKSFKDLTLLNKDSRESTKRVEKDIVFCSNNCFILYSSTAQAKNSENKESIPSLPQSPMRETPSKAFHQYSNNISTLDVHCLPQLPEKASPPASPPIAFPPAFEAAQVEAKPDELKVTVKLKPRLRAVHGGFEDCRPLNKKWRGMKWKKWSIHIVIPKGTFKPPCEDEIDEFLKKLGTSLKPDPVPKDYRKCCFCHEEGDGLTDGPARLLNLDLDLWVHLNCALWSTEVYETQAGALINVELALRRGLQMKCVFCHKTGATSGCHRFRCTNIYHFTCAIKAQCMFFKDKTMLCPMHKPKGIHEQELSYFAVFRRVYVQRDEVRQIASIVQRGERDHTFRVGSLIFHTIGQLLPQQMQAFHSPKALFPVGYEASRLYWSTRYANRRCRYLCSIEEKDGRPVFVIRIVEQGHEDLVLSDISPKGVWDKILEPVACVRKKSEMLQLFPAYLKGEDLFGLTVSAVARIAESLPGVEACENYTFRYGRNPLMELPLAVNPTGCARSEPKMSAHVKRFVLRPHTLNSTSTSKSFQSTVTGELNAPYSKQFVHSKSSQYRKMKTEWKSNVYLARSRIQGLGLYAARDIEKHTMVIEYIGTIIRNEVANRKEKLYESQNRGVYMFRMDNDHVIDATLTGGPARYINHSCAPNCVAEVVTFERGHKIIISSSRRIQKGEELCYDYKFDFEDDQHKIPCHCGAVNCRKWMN

[10] = target: Histone-lysine N-methyltransferase SETDB1 (Homo sapiens) (UniProt Q15047); experiment: Inhibition of SETDB1 (unknown origin) using Biotin-tagged H4K20me1 and [3H-SAM] as substrate at 1 to 10 uM incubated for 2 hrs by scintillation proximity assay; settings: dose 1-10 µM
[11] = target: Histone-lysine N-methyltransferase EHMT2 (Homo sapiens) (UniProt Q96KQ7); experiment: Inhibition of G9a (unknown origin) using Biotin-tagged H4K20me1 and [3H-SAM] as substrate at 1 to 10 uM incubated for 2 hrs by scintillation proximity assay; settings: dose 1-10 µM
[12] = target: Mitogen-activated protein kinase 1 (Homo sapiens) (UniProt P28482); experiment: Inhibition of human ERK2 at 10 uM relative to control
[13] = target: Mitogen-activated protein kinase 8 (Homo sapiens) (UniProt P45983); experiment: Inhibition of human JNK1 at 10 uM relative to control
[14] = target: Histone-lysine N-methyltransferase SUV39H1 (Homo sapiens) (UniProt O43463); experiment: Inhibition of SUV39H1 (unknown origin) using Biotin-tagged H4K20me1 and [3H-SAM] as substrate at 1 to 10 uM incubated for 2 hrs by scintillation proximity assay; settings: dose 1-10 µM
[15] = target: Protein arginine N-methyltransferase 7 (Homo sapiens) (UniProt Q9NVM4); experiment: Inhibition of PRMT7 (unknown origin) using Biotin-tagged H4K20me1 and [3H-SAM] as substrate at 1 to 10 uM incubated for 2 hrs by scintillation proximity assay; settings: dose 1-10 µM
[16] = target: Endothelin-1 receptor (Homo sapiens) (UniProt P25101); experiment: Inhibition of human ETA at 10 uM relative to control
[17] = target: Hepatocyte growth factor receptor (Homo sapiens) (UniProt P08581); experiment: Inhibition of human c-Met at 10 uM relative to control
[18] = system: PC-3; experiment: Antiproliferative activity against human PC-3 cells assessed as cell population doubling at 1 uM incubated for 80 days; type: functional, cell-based; settings: time 80.0 day
[19] = system: HeLa; experiment: Antiproliferative activity against human HeLa cells assessed as inhibition in H4K20me2 expression level 21 doublings by Western blot analysis; type: functional, cell-based
[20] = target: Serine/threonine-protein kinase 26 (Homo sapiens) (UniProt Q9P289); experiment: Inhibition of human MST4 at 10 uM relative to control
[21] = target: Histone-lysine N-methyltransferase SETD7 (Homo sapiens) (UniProt Q8WTS6); experiment: Inhibition of SETD7 (unknown origin) using Biotin-tagged H4K20me1 and [3H-SAM] as substrate at 1 to 10 uM incubated for 2 hrs by scintillation proximity assay; settings: dose 1-10 µM
[22] = system: HL-60; experiment: Cytotoxicity against human HL-60 cells assessed as cell viability at 1.5 to 100 uM incubated after 72 hrs; type: functional, cell-based; settings: dose 1.5-100 µM
[23] = target: Histone-lysine N-methyltransferase ASH1L (Homo sapiens) (UniProt Q9NR48); experiment: Inhibition of ASH1L (unknown origin) at 1 to 10 uM incubated for 1 hrs by scintillation proximity assay; settings: dose 1-10 µM
[24] = target: D(1B) dopamine receptor (Homo sapiens) (UniProt P21918); experiment: Inhibition of human D(5) dopamine receptor expressed in HEK293T cells at 10 uM relative to control; type: cell-based
[25] = target: Histone-lysine N-methyltransferase NSD3 (Homo sapiens) (UniProt Q9BZ95); experiment: Inhibition of NSD3 (unknown origin) at 1 to 10 uM incubated for 1 hrs by scintillation proximity assay; settings: dose 1-10 µM
[26] = target: cAMP-dependent protein kinase (PKA) (Homo sapiens) (UniProt P22694+P17612+P22612); experiment: Inhibition of human PKA at 10 uM relative to control; type: protein assay
[27] = system: MEF; experiment: Antiproliferative activity against mouse MEF cells assessed as increase in H4K20me1 level at 10 uM incubated for 3 days by immunofluorescence analysis; type: functional, cell-based; settings: time 3.0 day
[28] = system: U2OS; experiment: Induction of DNA repair in human U2OS cells expressing I-SceI reporter assessed as decrease in H4K20me2 level by Western blot analysis; type: functional, cell-based
[29] = system: U2OS; experiment: Inhibition of colony formation in human U2OS cells at 1 uM incubated for 48 hrs in the presence of olaparib by cell clonogenic assay; type: functional, cell-based
[30] = target: Sigma non-opioid intracellular receptor 1 (Homo sapiens) (UniProt Q99720); experiment: Inhibition of human Sigma non-opioid intracellular receptor 1 at 10 uM relative to control; type: cell-based
Sequence of Sigma non-opioid intracellular receptor 1 (Homo sapiens) (Q99720 whole entry): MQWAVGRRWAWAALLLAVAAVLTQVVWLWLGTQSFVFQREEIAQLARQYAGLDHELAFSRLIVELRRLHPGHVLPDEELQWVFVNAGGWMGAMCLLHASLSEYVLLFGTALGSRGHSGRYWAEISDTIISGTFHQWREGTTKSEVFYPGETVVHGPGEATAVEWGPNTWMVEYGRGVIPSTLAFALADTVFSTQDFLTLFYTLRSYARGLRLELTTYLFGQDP

[31] = species: Homo sapiens; experiment: Inhibition of human Gastric receptor I at 10 uM relative to control
[32] = target: Sodium-dependent noradrenaline transporter (Homo sapiens) (UniProt P23975); experiment: Inhibition of human Norepinephrine transporter at 10 uM relative to control
[33] = system: MEF; experiment: Antiproliferative activity against mouse MEF cells assessed as change in H4K20me1 at 10 uM incubated for 3 days by immunofluorescence analysis; type: functional, cell-based; settings: time 3.0 day
[34] = target: 5-hydroxytryptamine receptor 1E (Homo sapiens) (UniProt P28566); experiment: Inhibition of human 5-ht1e in stable HEK cells at 10 uM relative to control; type: cell-based

inhibition [1]: 7%
ΔTm [2]: 12.5 °C
inhibition [4]: inactive
inhibition [5]: inactive
inhibition [7]: inactive
inhibition [8]: -10%
inhibition [9]: inactive
inhibition [10]: inactive
inhibition [11]: inactive
inhibition [12]: 1%
inhibition [13]: -8%
inhibition [14]: inactive
inhibition [15]: inactive
inhibition [16]: -5%
inhibition [17]: -4%
inhibition [20]: -2%
inhibition [21]: inactive
inhibition [23]: inactive
inhibition [24]: -4%
inhibition [25]: inactive
inhibition [26]: -1%
SMILES: Clc1cc2c(NC3CCCC3)nnc(-c3ccncc3)c2cc1Cl
inhibition [3]: Active
Activity [6]: Active
Activity [18]: Active
Activity [19]: Active
Activity [22]: Active
Activity [27]: Active
Activity [28]: Active
inhibition [29]: Active

inhibition [30]: -7%
inhibition [31]: -5%
inhibition [32]: 1%
inhibition [34]: 10%
SMILES: O=C(c1nnc(NC2CCCC2)c2cc(Cl)c(Cl)cc12)N1CCC(O)CC1
Activity [33]: inactive
